Key:
[1] = Measurement of lipophilicity (octanol / PBS pH 7.4); assay type: physicochemical; details: octanol/PBS pH 7.4
[2] = Plasma free fraction (fp) by ultrafiltration; assay type: in vitro ADME, rhesus monkey; details: monkey, plasma (separated from spiked whole blood)
[3] = LEV blocking and displacement PET scans, Lassen plot; assay type: in vivo, rhesus monkeys (Macaca mulatta); details: male, rhesus monkey, intravenous
Description: Four monkeys were studied.
To examine the in vivo binding specificity, SV2A occupancy, and the extent of nonspecific binding in the monkey brain, we performed the Lassen plot analysis using data from the two baseline scans and one blocking scan in the same monkey.

[4] = Free base fraction in plasma by modified Henderson-Hasselbalch equation (Eq. 1); details: Eq. 1, plasma pH 7.4
[5] = Brain PET imaging with 1TC kinetic modeling; details: rhesus monkey, intravenous; for Kp / half-life: both
Description: (§1) A total of 10 PET imaging experiments with [^18F]SDM-16 were performed in rhesus monkeys (Macaca mulatta) according to a protocol approved by the Yale University Institutional Animal Care and Use Committee (IACUC). Four monkeys were studied. […] Body temperature was maintained by a water-jacket heating pad. The animal was attached to a physiological monitor, and vital signs (heart rate, blood pressure, respirations, SPO2, EKG, ETCO2, and body temperature) were continuously monitored. A venous line was inserted in one limb for administration of radiotracer, displacement, and blocking drugs. A catheter was placed in the femoral artery in the other limb for blood sampling. Dynamic PET brain scans were performed on a Focus 220 system (Siemens Medical Solutions, Knoxville, TN, USA) with a reconstructed image resolution of approximately 1.5 mm. After a 9-min transmission scan, the radioligand was injected i.v. over 3 min. by an infusion pump. Dynamic PET scans were performed for 3 h (baseline and blocking scans) or 4 h (displacement scan).
(§2) PET images were reconstructed with built-in corrections for attenuation, normalization, scatter, randoms, and deadtime. PET brain images were registered to the animal’s MR image, which was subsequently registered to a brain atlas to define the regions of interest. Dynamic images were reconstructed using a Fourier rebinning and filtered back projection algorithm. A rhesus monkey brain atlas was used for generation of regions of interest (ROIs) and time − activity curves (TACs) for the following ROIs: amygdala, brain stem, caudate nucleus, centrum semiovale (CS), cerebellum, cingulate cortex, frontal cortex, globus pallidus, hippocampus, insula, nucleus accumbens, occipital cortex, pons, putamen, substantia nigra, temporal cortex, and thalamus.
(§3) Volume of distribution (VT, mL·cm^−3) values and the first-order kinetic rate constants of tracer (K1) were derived through 1-tissue (1T) compartment kinetic modeling with the metabolite-corrected arterial plasma input function, which was calculated as the product of the fitted total plasma curve and the parent radiotracer fraction curve. Nondisplaceable volume of distribution (VND) and SV2A occupancy by LEV was calculated using the Lassen plot [32]. Nondisplaceable binding potential (BPND) values were calculated from VT values using CS as reference region, or the VND derived from the blocking study, i.e., BPND = (VT, ROI − VT, CS)/ VT, CS or BPND = (VT/VND) -1.

SV2A = assay: Brain PET imaging with 1TC kinetic modeling; details: for VT (baseline): 1TC
Description: as §1, §2, §3

Work on Cc1nccn1CN1C[C@@H](c2cc(F)cc([18F])c2)CC1=O [[^18F]SDM-16, (R)-4-(3-fluoro-5-(fluoro-^18F)phenyl)-1-((2-methyl-1H-imidazol-1-yl)methyl)pyrrolidin-2-one] yielded a logP [1] of 1.65 ± 0.05, a fraction unbound at 5 min [2] of 0.69 and a Kp ([3]; brain (caudate), Caudate, LEV 30 mg/kg i.v., read-out: VT (blocking)) of 7.7. The Kp ([3]; brain (putamen), Putamen, LEV 30 mg/kg i.v., read-out: VT (blocking)) was 8.8, the Kp ([3]; brain (thalamus), Thalamus, LEV 30 mg/kg i.v., read-out: VT (blocking)) was 8.2 and the Kp ([3]; brain, Lassen plot, read-out: VND) was 2.54. The “fraction present in plasma as free base” value [4] was 30%, the Kp ([5]; brain (caudate)) was 21.6 ± 4.9 and the Kp ([5]; brain (centrum semiovale)) was 6.6. It also gave a half-life ([5]; brain (centrum semiovale)) of 83 ± 18 min, a Kp ([5]; brain (cerebellum)) of 21.5 ± 3 and a Kp ([5]; brain (cingulate cortex)) of 31.3. It also gave a half-life ([5]; brain (insular cortex)) of 152 ± 49 min, a Kp ([5]; brain (putamen)) of 26 ± 6.8 and a Kp ([5]; brain (thalamus)) of 21.6 ± 4.9. The fraction unbound ([5]; brain tissue) was 0.27, the K1 (SV2A; Amygdala) was 0.10 ± 0.02 mL/cm^3 per min and the “VT (baseline)” value (SV2A; Amygdala) was 11.2 ± 2.0 mL/cm^3. The K1 (SV2A; Anterior cingulate) was 0.15 ± 0.01 mL/cm^3 per min, the K1 (SV2A; Brainstem) was 0.14 ± 0.02 mL/cm^3 per min and the “VT (baseline)” value (SV2A; Brainstem) was 14.1 ± 1.7 mL/cm^3. The K1 (SV2A; Caudate) was 0.13 ± 0.02 mL/cm^3 per min, the “VT (baseline)” value (SV2A; Centrum semiovale) was 6.6 ± 0.9 mL/cm^3 and the K1 (SV2A; Cerebellum) was 0.18 ± 0.02 mL/cm^3 per min. The K1 (SV2A; Cingulate cortex) was 0.15 ± 0.00 mL/cm^3 per min, the “VT (baseline)” value (SV2A; Cingulate cortex) was 31.3 ± 7.8 mL/cm^3 and the K1 (SV2A; Frontal cortex) was 0.14 ± 0.00 mL/cm^3 per min. The “VT (baseline)” value (SV2A; Frontal cortex) was 27.9 ± 6.8 mL/cm^3, the K1 (SV2A; Globus pallidus) was 0.11 ± 0.01 mL/cm^3 per min and the “VT (baseline)” value (SV2A; Globus pallidus) was 17.2 ± 3.5 mL/cm^3. The K1 (SV2A; Hippocampus) was 0.12 ± 0.02 mL/cm^3 per min, the “VT (baseline)” value (SV2A; Hippocampus) was 17.9 ± 2.5 mL/cm^3 and the K1 (SV2A; Insular cortex) was 0.14 ± 0.01 mL/cm^3 per min. The “VT (baseline)” value (SV2A; Insular cortex) was 29.8 ± 8.0 mL/cm^3, the K1 (SV2A; Mean ± SD over brain regions) was 0.14 ± 0.03 mL/cm^3 per min and the K1 (SV2A; Nucleus accumbens) was 0.13 ± 0.01 mL/cm^3 per min. The “VT (baseline)” value (SV2A; Nucleus accumbens) was 29.4 ± 8.5 mL/cm^3, the K1 (SV2A; Occipital cortex) was 0.18 ± 0.02 mL/cm^3 per min and the “VT (baseline)” value (SV2A; Occipital cortex) was 29.5 ± 5.5 mL/cm^3. For the same compound, the K1 (SV2A; Putamen) was 0.16 ± 0.02 mL/cm^3 per min, the K1 (SV2A; Temporal cortex) was 0.14 ± 0.01 mL/cm^3 per min and the “VT (baseline)” value (SV2A; Temporal cortex) was 27.3 ± 5.7 mL/cm^3. For the same compound, the K1 (SV2A; Thalamus) was 0.14 ± 0.02 mL/cm^3 per min, the “SUV (brain tracer uptake)” value (SV2A; baseline scan, end of scan, frontal cortex and putamen) was “about 10” and the “averaged VT as percent of that of [^11C]UCB-A” value (SV2A; rhesus monkey, in vivo) was 59%. For the same compound, the “regional K1 lower than [^11C]UCB-J” value (SV2A; rhesus monkey, in vivo) was 82%, the “regional K1 lower than [^18F]SynVesT-1” value (SV2A; rhesus monkey, in vivo) was 86% and the “in vivo defluorination (radioactivity in skull)” value (SV2A; up to 4-h p.i.) was “lack of in vivo defluorination”.

Source: article PMC8940841, “A metabolically stable PET tracer for imaging synaptic vesicle protein 2A: synthesis and preclinical characterization of [^18F]SDM-16” (European Journal of Nuclear Medicine and Molecular Imaging, 2021)
